Source: ChEMBL document CHEMBL3045992, “Antitumour activity of 5-[(2E)-1-(1H-benzimidazol-2-yl)-3-substituted phenylprop-2-en-1-ylidene] pyrimidine-2,4,6(1H,3H,5H)-triones against Daltons ascitic lymphoma in mice” (Med Chem Res, 2013)

Assays:
[1] = Antitumor activity against Mus musculus (mouse) DLA cells transplanted in Swiss albino mouse assessed as increase in haemoglobin level at 50 mg/kg, ip qd administered 24 hr post tumor transplantation for 14 days measured on day 14 (reference value: 7.12 +/- 0.95 g/dl); assay type: functional; settings: route intraperitoneal
[2] = Antitumor activity against Mus musculus (mouse) DLA cells transplanted in Swiss albino mouse assessed as decrease in triglyceride level at 50 mg/kg, ip qd administered 24 hr post tumor transplantation for 14 days measured on day 14 (reference value: 210.12 +/- 4.65 mg/dl); assay type: functional; settings: route intraperitoneal
[3] = Antitumor activity against Mus musculus (mouse) DLA cells transplanted in Swiss albino mouse assessed as decrease in cancer cell count measured 10^6 cells at 50 mg/kg, ip qd administered 24 hr post tumor transplantation for 14 days measured on day 14 (reference value: 2.76 +/- 0.33 ml); assay type: functional, Cancer cell lines; settings: route intraperitoneal
[4] = Antitumor activity against Mus musculus (mouse) DLA cells transplanted in Swiss albino mouse assessed as increase in platelet count at 50 mg/kg, ip qd administered 24 hr post tumor transplantation for 14 days measured on day 14 (reference value: 1.6 +/- 0.52 lakhs/mm3); assay type: functional; settings: route intraperitoneal
[5] = Antitumor activity against Mus musculus (mouse) DLA cells transplanted in Swiss albino mouse assessed as decrease in cholesterol level at 50 mg/kg, ip qd administered 24 hr post tumor transplantation for 14 days measured on day 14 (reference value: 140.86 +/- 4.6 mg/dl); assay type: functional; settings: route intraperitoneal
[6] = Antitumor activity against Mus musculus (mouse) DLA cells transplanted in Swiss albino mouse assessed as decrease in alanine amino transferase level at 50 mg/kg, ip qd administered 24 hr post tumor transplantation for 14 days measured on day 14 (reference value: 61.2 +/- 2.6 U/L); assay type: functional; settings: route intraperitoneal
[7] = Antitumor activity against Mus musculus (mouse) DLA cells transplanted in Swiss albino mouse assessed as decrease in alkaline phosphatase level at 50 mg/kg, ip qd administered 24 hr post tumor transplantation for 14 days measured on day 14 (reference value: 242.22 +/- 4.3 U/L); assay type: functional; settings: route intraperitoneal
[8] = Antitumor activity against Mus musculus (mouse) DLA cells transplanted in Swiss albino mouse assessed as decrease in body weight at 50 mg/kg, ip qd administered 24 hr post tumor transplantation for 14 days measured on day 14 (reference value: 7.6 +/- 0.94 g); assay type: functional; settings: route intraperitoneal
[9] = Antitumor activity against Mus musculus (mouse) DLA cells transplanted in Swiss albino mouse assessed as decrease in packed cell volume at 50 mg/kg, ip qd administered 24 hr post tumor transplantation for 14 days measured on day 14 (reference value: 30.55 +/- 3.52%); assay type: functional; parameters: scale not given: the % may be the effect or the level left; settings: route intraperitoneal
[10] = Antitumor activity against Mus musculus (mouse) DLA cells transplanted in Swiss albino mouse assessed as increase in RBC count at 50 mg/kg, ip qd administered 24 hr post tumor transplantation for 14 days measured on day 14 (reference value: 2.46 +/- 0.45 million/mm3); assay type: functional; settings: route intraperitoneal
[11] = Antitumor activity against Mus musculus (mouse) DLA cells transplanted in Swiss albino mouse assessed as increase in life span at 50 mg/kg, ip qd administered 24 hr post tumor transplantation for 14 days measured on day 14 (reference value: 50%); assay type: functional; settings: route intraperitoneal
[12] = Antitumor activity against Mus musculus (mouse) DLA cells transplanted in Swiss albino mouse assessed as decrease in total WBC count measured 10^3 cells at 50 mg/kg, ip qd administered 24 hr post tumor transplantation for 14 days measured on day 14 (reference value: 14.40 +/- 2.5 ml); assay type: functional; parameters: unit not given here; settings: route intraperitoneal
[13] = Antitumor activity against Mus musculus (mouse) DLA cells transplanted in Swiss albino mouse assessed as decrease in aspartate amino transferase level at 50 mg/kg, ip qd administered 24 hr post tumor transplantation for 14 days measured on day 14 (reference value: 85.6 +/- 2.72 U/L); assay type: functional; settings: route intraperitoneal
Mus musculus = experiment: Acute toxicity in ip dosed albino Mus musculus (mouse) after 24 hr; assay type: organism-based; settings: in vivo
[14] = Antitumor activity against Mus musculus (mouse) DLA cells transplanted in Swiss albino mouse assessed as decrease in body weight at 20 mg/kg, ip qd administered 24 hr post tumor transplantation for 14 days measured on day 14 (reference value: 7.6 +/- 0.94 g); assay type: functional; settings: route intraperitoneal
[15] = Antitumor activity against Mus musculus (mouse) DLA cells transplanted in Swiss albino mouse assessed as decrease in alanine amino transferase level at 20 mg/kg, ip qd administered 24 hr post tumor transplantation for 14 days measured on day 14 (reference value: 61.2 +/- 2.6 U/L); assay type: functional; settings: route intraperitoneal
[16] = Antitumor activity against Mus musculus (mouse) DLA cells transplanted in Swiss albino mouse assessed as decrease in total WBC count measured 10^3 cells at 20 mg/kg, ip qd administered 24 hr post tumor transplantation for 14 days measured on day 14 (reference value: 14.40 +/- 2.5 ml); assay type: functional; settings: route intraperitoneal
[17] = Antitumor activity against Mus musculus (mouse) DLA cells transplanted in Swiss albino mouse assessed as decrease in cancer cell count measured 10^6 cells at 20 mg/kg, ip qd administered 24 hr post tumor transplantation for 14 days measured on day 14 (reference value: 2.76 +/- 0.33 ml); assay type: functional, Cancer cell lines; settings: route intraperitoneal
[18] = Antitumor activity against Mus musculus (mouse) DLA cells transplanted in Swiss albino mouse assessed as decrease in aspartate amino transferase level at 20 mg/kg, ip qd administered 24 hr post tumor transplantation for 14 days measured on day 14 (reference value: 85.6 +/- 2.72 U/L); assay type: functional; settings: route intraperitoneal
[19] = Antitumor activity against Mus musculus (mouse) DLA cells transplanted in Swiss albino mouse assessed as decrease in triglyceride level at 20 mg/kg, ip qd administered 24 hr post tumor transplantation for 14 days measured on day 14 (reference value: 210.12 +/- 4.65 mg/dl); assay type: functional; settings: route intraperitoneal
[20] = Antitumor activity against Mus musculus (mouse) DLA cells transplanted in Swiss albino mouse assessed as increase in haemoglobin level at 20 mg/kg, ip qd administered 24 hr post tumor transplantation for 14 days measured on day 14 (reference value: 7.12 +/- 0.95 g/dl); assay type: functional; settings: route intraperitoneal
[21] = Antitumor activity against Mus musculus (mouse) DLA cells transplanted in Swiss albino mouse assessed as increase in life span at 20 mg/kg, ip qd administered 24 hr post tumor transplantation for 14 days measured on day 14 (reference value: 50%); assay type: functional; settings: route intraperitoneal
[22] = Antitumor activity against Mus musculus (mouse) DLA cells transplanted in Swiss albino mouse assessed as increase in platelet count at 20 mg/kg, ip qd administered 24 hr post tumor transplantation for 14 days measured on day 14 (reference value: 1.6 +/- 0.52 lakhs/mm3); assay type: functional; settings: route intraperitoneal
[23] = Antitumor activity against Mus musculus (mouse) DLA cells transplanted in Swiss albino mouse assessed as decrease in alkaline phosphatase level at 20 mg/kg, ip qd administered 24 hr post tumor transplantation for 14 days measured on day 14 (reference value: 242.22 +/- 4.3 U/L); assay type: functional; settings: route intraperitoneal
[24] = Antitumor activity against Mus musculus (mouse) DLA cells transplanted in Swiss albino mouse assessed as decrease in cholesterol level at 20 mg/kg, ip qd administered 24 hr post tumor transplantation for 14 days measured on day 14 (reference value: 140.86 +/- 4.6 mg/dl); assay type: functional; settings: route intraperitoneal
[25] = Antitumor activity against Mus musculus (mouse) DLA cells transplanted in Swiss albino mouse assessed as decrease in packed cell volume at 20 mg/kg, ip qd administered 24 hr post tumor transplantation for 14 days measured on day 14 (reference value: 30.55 +/- 3.52%); assay type: functional; parameters: scale not given: the % may be the effect or the level left; settings: route intraperitoneal
[26] = Antitumor activity against Mus musculus (mouse) DLA cells transplanted in Swiss albino mouse assessed as increase in RBC count at 20 mg/kg, ip qd administered 24 hr post tumor transplantation for 14 days measured on day 14 (reference value: 2.46 +/- 0.45 million/mm3); assay type: functional; settings: route intraperitoneal

Row | SMILES | Activity [1] [g/dL] | Activity [2] [mg/dL] | Activity [3] [mL] | Activity [4] [×10⁵ /mm3] | Activity [5] [mg/dL] | Activity [6] [U/L] | Activity [7] [U/L] | Activity [8] [g] | Activity [9] [%] | Activity [10] [million/mm3] | Activity [11] [%] | Activity [12] | Activity [13] [U/L] | ED50 (Mus musculus) [mg/kg] | other results
1 | CN(C)c1ccc(/C=C/C(=C2C(=O)NC(=O)NC2=O)c2nc3ccccc3[nH]2)cc1 | 10.42 | 172.4 | 1.9 | 2.22 | 124.3 | 51.45 | 210.21 | 5.9 | 22.42 | 3.25 | 74 | 12.5 | 73.4 | 50 | –
2 | O=C1NC(=O)C(=C(/C=C/c2cccc([N+](=O)[O-])c2)c2nc3ccccc3[nH]2)C(=O)N1 | 10.5 | 168.7 | 1.88 | 2.3 | 122.3 | 53.42 | 202.85 | 5.88 | 20.48 | 3.3 | 76 | 12.45 | 72.6 | 50 | –
3 | O=C1NC(=O)C(=C(/C=C/c2ccccc2O)c2nc3ccccc3[nH]2)C(=O)N1 | 10.1 | 178.7 | 2.03 | 2.05 | 131.3 | 56.42 | 229.15 | 5.43 | 23.68 | 2.8 | 69 | 13.45 | 75.4 | 50 | –
4 | O=C1NC(=O)C(=C(/C=C/c2ccccc2)c2nc3ccccc3[nH]2)C(=O)N1 | 9.3 | 186.85 | 2.26 | 1.99 | 136.45 | 57.3 | 232.32 | 6.45 | 24.1 | 2.9 | 66 | 13.8 | 77.6 | 50 | –
5 | O=C1NC(=O)C(=C(/C=C/c2ccc(Cl)cc2)c2nc3ccccc3[nH]2)C(=O)N1 | 10.3 | 182.5 | 2.12 | 2.1 | 129.32 | 55.6 | 223.36 | 6.6 | 23.1 | 3.1 | 70 | 12.7 | 76.52 | 50 | –
6 | COc1ccc(/C=C/C(=C2C(=O)NC(=O)NC2=O)c2nc3ccccc3[nH]2)cc1 | 10.28 | 170.6 | 1.96 | 2.12 | 126.35 | 53.52 | 218.26 | 6.3 | 22.9 | 3.15 | 72 | 12.55 | 75.62 | 50 | –
7 | O=c1[nH]cc(F)c(=O)[nH]1 [FLUOROURACIL] | – | – | – | – | – | – | – | – | – | – | – | – | – | – | Activity [14]: 3.7 g; Activity [15]: 42.45 U/L; Activity [16]: 11.3 mL; Activity [17]: 1.3 mL; Activity [18]: 56.3 U/L; Activity [19]: 156.42 mg/dL; Activity [20]: 11.5 g/dL; Activity [21]: 94%; Activity [22]: 2.65 ×10⁵ /mm3; Activity [23]: 162.3 U/L; Activity [24]: 112.52 mg/dL; Activity [25]: 17.45%; Activity [26]: 4.1 million/mm3
